Laboratory results taken from ChEMBL document CHEMBL5390283, “Discovery of PVD-06 as a Subtype-Selective and Efficient PTPN2 Degrader” (J Med Chem, 2023).
Active and inactive are the calls of the source. No cut-off for these calls is given here.

Each compound was assayed against T1, von Hippel-Lindau disease tumor suppressor/Tyrosine-protein phosphatase non-receptor type 2 (Homo sapiens, UniProt P17706+P40337) (assay: PROTAC activity at VHL/PTPN2 in human Jurkat cells assessed as induction of PTPN2 degradation at 100 nM by Western blot analysis relative to control). Settings: not given.
Assay type: cell-based
Target sequence in this assay (P17706 whole entry, looked up): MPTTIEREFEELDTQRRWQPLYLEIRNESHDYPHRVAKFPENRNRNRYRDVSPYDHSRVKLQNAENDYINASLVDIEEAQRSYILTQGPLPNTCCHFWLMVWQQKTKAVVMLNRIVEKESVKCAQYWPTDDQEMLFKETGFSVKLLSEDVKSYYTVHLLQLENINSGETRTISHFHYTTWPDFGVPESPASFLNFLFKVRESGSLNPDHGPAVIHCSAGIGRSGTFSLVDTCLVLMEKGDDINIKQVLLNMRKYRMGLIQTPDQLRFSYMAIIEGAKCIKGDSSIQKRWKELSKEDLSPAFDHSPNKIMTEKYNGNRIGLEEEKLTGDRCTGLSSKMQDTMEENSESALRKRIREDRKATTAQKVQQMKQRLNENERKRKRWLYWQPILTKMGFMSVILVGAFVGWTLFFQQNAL
Target sequence in this assay (P40337 whole entry, looked up): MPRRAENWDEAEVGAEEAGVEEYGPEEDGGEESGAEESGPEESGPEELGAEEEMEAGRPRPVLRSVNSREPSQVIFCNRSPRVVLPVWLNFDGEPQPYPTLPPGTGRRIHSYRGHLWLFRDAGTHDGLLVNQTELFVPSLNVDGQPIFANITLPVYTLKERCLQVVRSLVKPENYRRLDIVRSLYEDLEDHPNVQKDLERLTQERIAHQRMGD
Work on Cc1ncsc1-c1ccc([C@H](C)NC(=O)[C@@H]2C[C@@H](O)CN2C(=O)[C@@H](NC(=O)CCNC(=O)Cn2cc(-c3ccc4cc(O)c(N5CC(=O)NS5(=O)=O)c(F)c4c3)cn2)C(C)(C)C)cc1 yielded an Activity of -1%.
For Cc1ncsc1-c1ccc([C@H](C)NC(=O)[C@@H]2C[C@@H](O)CN2C(=O)[C@@H](NC(=O)CCCCCCCCCCNC(=O)Cn2cc(-c3ccc4cc(O)c(N5CC(=O)NS5(=O)=O)c(F)c4c3)cn2)C(C)(C)C)cc1, the Activity was 4%.
Cc1ncsc1-c1ccc([C@H](C)NC(=O)[C@@H]2C[C@@H](O)CN2C(=O)[C@@H](NC(=O)CCCCCCCNC(=O)Cn2cc(-c3ccc4cc(O)c(N5CC(=O)NS5(=O)=O)c(F)c4c3)cn2)C(C)(C)C)cc1 was tested, and the Activity was 37%.

The compounds below were run against T1, von Hippel-Lindau disease tumor suppressor/Tyrosine-protein phosphatase non-receptor type 2 (assay: PROTAC activity at VHL/PTPN2 in human Jurkat cells assessed as induction of PTPN2 degradation at 1 uM by Western blot analysis relative to control). Settings: not given.
Assay type: cell-based
Target sequence in this assay (P17706 whole entry, looked up): as the sequence (P17706 whole entry, looked up) above
Target sequence in this assay (P40337 whole entry, looked up): as the sequence (P40337 whole entry, looked up) above
For Cc1ncsc1-c1ccc([C@H](C)NC(=O)[C@@H]2C[C@@H](O)CN2C(=O)[C@@H](NC(=O)CCNC(=O)Cn2cc(-c3ccc4cc(O)c(N5CC(=O)NS5(=O)=O)c(F)c4c3)cn2)C(C)(C)C)cc1, the Activity was 57%.
For Cc1ncsc1-c1ccc([C@H](C)NC(=O)[C@@H]2C[C@@H](O)CN2C(=O)[C@@H](NC(=O)CCCCCCCCCCNC(=O)Cn2cc(-c3ccc4cc(O)c(N5CC(=O)NS5(=O)=O)c(F)c4c3)cn2)C(C)(C)C)cc1, the Activity was 71%.
Work on Cc1ncsc1-c1ccc([C@H](C)NC(=O)[C@@H]2C[C@@H](O)CN2C(=O)[C@@H](NC(=O)CCCCCCCNC(=O)Cn2cc(-c3ccc4cc(O)c(N5CC(=O)NS5(=O)=O)c(F)c4c3)cn2)C(C)(C)C)cc1 yielded an Activity of 84%.

The compounds below were run against T1, von Hippel-Lindau disease tumor suppressor/Tyrosine-protein phosphatase non-receptor type 2 (assay: PROTAC activity at VHL/PTPN2 in human Jurkat cells assessed as induction of PTPN2 degradation at 10 uM by Western blot analysis relative to control). Settings: not given.
Assay type: cell-based
Target sequence in this assay (P17706 whole entry, looked up): as the sequence (P17706 whole entry, looked up) above
Target sequence in this assay (P40337 whole entry, looked up): as the sequence (P40337 whole entry, looked up) above
In the case of Cc1ncsc1-c1ccc([C@H](C)NC(=O)[C@@H]2C[C@@H](O)CN2C(=O)[C@@H](NC(=O)CCNC(=O)Cn2cc(-c3ccc4cc(O)c(N5CC(=O)NS5(=O)=O)c(F)c4c3)cn2)C(C)(C)C)cc1, the Activity is reported as 96%.
Work on Cc1ncsc1-c1ccc([C@H](C)NC(=O)[C@@H]2C[C@@H](O)CN2C(=O)[C@@H](NC(=O)CCCCCCCCCCNC(=O)Cn2cc(-c3ccc4cc(O)c(N5CC(=O)NS5(=O)=O)c(F)c4c3)cn2)C(C)(C)C)cc1 yielded an Activity of 98%.
Compound Cc1ncsc1-c1ccc([C@H](C)NC(=O)[C@@H]2C[C@@H](O)CN2C(=O)[C@@H](NC(=O)CCCCCCCNC(=O)Cn2cc(-c3ccc4cc(O)c(N5CC(=O)NS5(=O)=O)c(F)c4c3)cn2)C(C)(C)C)cc1 has an Activity of 99%.

These compounds were tested against T1, von Hippel-Lindau disease tumor suppressor/Tyrosine-protein phosphatase non-receptor type 2 (assay: PROTAC activity at VHL/PTPN2 in human Jurkat cells assessed as induction of PTPN2 degradation by Western blot analysis). Settings: not given.
Assay type: cell-based
Target sequence in this assay (P17706 whole entry): as the sequence (P17706 whole entry, looked up) above
Target sequence in this assay (P40337 whole entry): as the sequence (P40337 whole entry, looked up) above
Compound Cc1ncsc1-c1ccc([C@H](C)NC(=O)[C@@H]2C[C@@H](O)CN2C(=O)[C@@H](NC(=O)CCCCCCCCCCNC(=O)Cn2cc(-c3ccc4cc(O)c(N5CC(=O)NS5(=O)=O)c(F)c4c3)cn2)C(C)(C)C)cc1 has an EC50 of 571 nM.
For Cc1ncsc1-c1ccc([C@H](C)NC(=O)[C@@H]2C[C@@H](O)CN2C(=O)[C@@H](NC(=O)CCCCCCCNC(=O)Cn2cc(-c3ccc4cc(O)c(N5CC(=O)NS5(=O)=O)c(F)c4c3)cn2)C(C)(C)C)cc1, the EC50 was 77 nM.

What follows are compounds tested against von Hippel-Lindau disease tumor suppressor/Tyrosine-protein phosphatase non-receptor type 1 (Homo sapiens, UniProt P18031+P40337) (assay: PROTAC activity at VHL/PTP1B in human Jurkat cells assessed as induction of PTP1B degradation by Western blot analysis). Settings: not given.
Sequence of von Hippel-Lindau disease tumor suppressor/Tyrosine-protein phosphatase non-receptor type 1 (P18031 whole entry): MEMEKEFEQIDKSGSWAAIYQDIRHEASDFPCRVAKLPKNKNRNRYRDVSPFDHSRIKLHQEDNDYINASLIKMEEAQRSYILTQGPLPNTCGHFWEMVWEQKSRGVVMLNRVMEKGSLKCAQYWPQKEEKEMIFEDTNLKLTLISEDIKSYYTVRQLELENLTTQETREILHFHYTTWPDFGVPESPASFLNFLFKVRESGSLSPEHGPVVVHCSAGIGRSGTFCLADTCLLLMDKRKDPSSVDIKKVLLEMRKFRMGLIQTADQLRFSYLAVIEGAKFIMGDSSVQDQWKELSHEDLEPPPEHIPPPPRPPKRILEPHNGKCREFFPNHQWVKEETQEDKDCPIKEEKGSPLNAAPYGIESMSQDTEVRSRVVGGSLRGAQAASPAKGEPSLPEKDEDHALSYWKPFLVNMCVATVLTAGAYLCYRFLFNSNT
Sequence of von Hippel-Lindau disease tumor suppressor/Tyrosine-protein phosphatase non-receptor type 1 (P40337 whole entry): as the sequence (P40337 whole entry, looked up) above
Assay type: cell-based
Cc1ncsc1-c1ccc([C@H](C)NC(=O)[C@@H]2C[C@@H](O)CN2C(=O)[C@@H](NC(=O)CCCCCCCCCCNC(=O)Cn2cc(-c3ccc4cc(O)c(N5CC(=O)NS5(=O)=O)c(F)c4c3)cn2)C(C)(C)C)cc1 gave an EC50 of 2000 nM.
Cc1ncsc1-c1ccc([C@H](C)NC(=O)[C@@H]2C[C@@H](O)CN2C(=O)[C@@H](NC(=O)CCCCCCCNC(=O)Cn2cc(-c3ccc4cc(O)c(N5CC(=O)NS5(=O)=O)c(F)c4c3)cn2)C(C)(C)C)cc1 showed an EC50 of 758 nM.

Each compound was assayed against Protein cereblon/Tyrosine-protein phosphatase non-receptor type 2 (Homo sapiens) (UniProt P17706+Q96SW2) (assay: PROTAC activity at CRBN/PTPN2 in human Jurkat cells assessed as induction of PTPN2 degradation at 0.01 to 10 uM by Western blot analysis). Settings: dose 0.01-10 µM.
Sequence of Protein cereblon/Tyrosine-protein phosphatase non-receptor type 2 (Homo sapiens) (P17706 whole entry, looked up): as the sequence (P17706 whole entry, looked up) above
Sequence of Protein cereblon/Tyrosine-protein phosphatase non-receptor type 2 (Homo sapiens) (Q96SW2 whole entry, looked up): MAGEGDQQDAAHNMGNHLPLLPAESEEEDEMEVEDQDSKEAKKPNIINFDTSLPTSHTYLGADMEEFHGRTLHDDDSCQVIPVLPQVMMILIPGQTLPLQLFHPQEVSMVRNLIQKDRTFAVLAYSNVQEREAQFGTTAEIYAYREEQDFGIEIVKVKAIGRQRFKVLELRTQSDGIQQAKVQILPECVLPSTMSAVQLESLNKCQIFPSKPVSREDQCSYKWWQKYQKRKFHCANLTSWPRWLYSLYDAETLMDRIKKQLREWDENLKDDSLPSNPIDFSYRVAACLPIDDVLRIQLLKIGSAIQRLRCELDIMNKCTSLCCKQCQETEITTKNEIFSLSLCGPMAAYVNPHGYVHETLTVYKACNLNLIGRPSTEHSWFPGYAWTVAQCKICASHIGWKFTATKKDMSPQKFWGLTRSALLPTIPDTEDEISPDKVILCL
Assay type: cell-based
For Cn1c(=O)n(C2CCC(=O)NC2=O)c2ccc(C3CCN(CCn4cc(-c5ccc6cc(O)c(N7CC(=O)NS7(=O)=O)c(F)c6c5)cn4)CC3)cc21 (centres undefined), the Activity was “Active”.
In the case of O=C(Cn1cc(-c2ccc3cc(O)c(N4CC(=O)NS4(=O)=O)c(F)c3c2)cn1)NCCCCCNc1cccc2c1C(=O)N(C1CCC(=O)NC1=O)C2=O (centres undefined), the Activity is reported as “Active”.
In the case of Cn1c(=O)n(C2CCC(=O)NC2=O)c2ccc(C3CCN(C(=O)Cn4cc(-c5ccc6cc(O)c(N7CC(=O)NS7(=O)=O)c(F)c6c5)cn4)CC3)cc21 (centres undefined), the Activity is reported as “Active”.
In the case of O=C(Cn1cc(-c2ccc3cc(O)c(N4CC(=O)NS4(=O)=O)c(F)c3c2)cn1)NCCCNc1cccc2c1C(=O)N(C1CCC(=O)NC1=O)C2=O (centres undefined), the Activity is reported as “Active”.
For O=C(Cn1cc(-c2ccc3cc(O)c(N4CC(=O)NS4(=O)=O)c(F)c3c2)cn1)NCCCCNc1cccc2c1C(=O)N(C1CCC(=O)NC1=O)C2=O (centres undefined), the Activity was “Active”.

These compounds were tested on Splenocyte (assay: Induction of cell proliferation in anti-CD3/CD28-stimulated mouse splenocytes at 0.625 to 10 uM incubated for 3 days by CFSE dye based flow cytometry). Settings: dose 0.625-10 µM, time 3.0 day.
Assay type: functional
With Cc1ncsc1-c1ccc([C@H](C)NC(=O)[C@@H]2C[C@@H](Oc3ccccc3)CN2C(=O)[C@@H](NC(=O)CCCCCNC(=O)Cn2cc(-c3ccc4cc(O)c(N5CC(=O)NS5(=O)=O)c(F)c4c3)cn2)C(C)(C)C)cc1 the Activity was “inactive”.
